# Measured values reported in BindingDB's records for doi:10.1016/j.bmcl.2015.05.094 (Orleans University, 2015).
# Experiment: Antagonist activity at human alpha-7 nicotinic acetylcholine receptor expressed in rat GH3 cells assessed as inhibition of epibatidine-induced Ca2+ influx preincubated for 5 mins followed by epibatidine induction measured for 3 mins by fluorescence assay
smiles,measurement,value
COc1ccc(CC2C[N+]3(C)CCC2CC3)cc1 (stereo unspecified),IC50,12.3 µM
